Source: ChEMBL document CHEMBL1146964, “Factor VIIa inhibitors: improved pharmacokinetic parameters” (Bioorg Med Chem Lett, 2006)

Tests used:
[1] = Plasma clearance in iv dosed rat
[2] = Mean residence time in iv dosed rat; assay type: ADME, organism-based; details: in vivo
[3] = biological target: Coagulation factor VII/tissue factor (Homo sapiens, UniProt P08709); assay: Binding affinity to factor7a/TF complex; assay type: protein-complex assay
[4] = Bioavailability in sc dosed rat; assay type: ADME, organism-based; details: in vivo

Chain of Coagulation factor VII/tissue factor (P08709 61-212 limits assumed): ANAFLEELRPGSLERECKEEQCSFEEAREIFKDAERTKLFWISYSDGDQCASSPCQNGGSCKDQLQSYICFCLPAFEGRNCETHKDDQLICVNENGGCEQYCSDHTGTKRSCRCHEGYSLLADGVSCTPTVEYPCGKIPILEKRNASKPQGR
Chain of Coagulation factor VII/tissue factor (P08709 213-466 limits assumed): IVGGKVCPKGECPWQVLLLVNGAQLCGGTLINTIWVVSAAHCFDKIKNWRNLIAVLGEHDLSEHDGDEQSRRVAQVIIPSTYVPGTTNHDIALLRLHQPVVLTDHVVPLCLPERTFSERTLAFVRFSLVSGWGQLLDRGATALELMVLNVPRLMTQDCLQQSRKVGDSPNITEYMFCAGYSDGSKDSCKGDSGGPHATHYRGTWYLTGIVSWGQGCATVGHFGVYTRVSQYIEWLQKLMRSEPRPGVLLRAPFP
Chain of Coagulation factor VII/tissue factor (P13726 33-295 partner limits assumed): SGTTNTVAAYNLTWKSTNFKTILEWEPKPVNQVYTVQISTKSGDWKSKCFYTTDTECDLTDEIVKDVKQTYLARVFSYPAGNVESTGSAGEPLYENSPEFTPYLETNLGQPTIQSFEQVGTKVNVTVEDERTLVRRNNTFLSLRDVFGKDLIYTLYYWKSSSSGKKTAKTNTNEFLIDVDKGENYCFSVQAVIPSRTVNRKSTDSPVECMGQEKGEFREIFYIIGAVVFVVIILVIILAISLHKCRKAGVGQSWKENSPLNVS

| clearance [1] [mL/min/kg] | MRT [2] [h] | Ki [3] [µM] | bioavailability [4] [%] | Compound |
| --- | --- | --- | --- | --- |
| – | < 1 | 0.021 | – | N=C(N)c1ccc2nc(-c3cc(CC(C(=O)O)C(=O)O)cc(-c4cccc([N+](=O)[O-])c4)c3O)[nH]c2c1 |
| – | < 1 | 0.015 | – | N=C(N)c1ccc2nc(-c3cc(CC(=O)O)cc(-c4cccc([N+](=O)[O-])c4)c3O)[nH]c2c1 |
| – | 9 | 0.004 | > 90 | N=C(N)c1ccc2[nH]c(-c3cc(C(CC(=O)O)C(=O)O)cc(-c4cc(F)ccc4O)c3O)nc2c1 (centres undefined) |
| – | < 1 | – | – | N=C(N)c1ccc2[nH]c(-c3cc(CC(=O)O)cc(-c4cccc([N+](=O)[O-])c4)c3O)cc2c1 |
| – | > 24 | 0.001 | – | N=C(N)c1ccc2[nH]c(-c3cc(C(CC(=O)O)C(=O)O)cc(-c4cccc([N+](=O)[O-])c4)c3O)cc2c1 (centres undefined) |

The remaining lines, values behind:

| Compound | clearance [1] [mL/min/kg] | MRT [2] [h] | Ki [3] [µM] | bioavailability [4] [%] |
| --- | --- | --- | --- | --- |
| N=C(N)c1ccc2[nH]c(-c3cc(CC(CC(=O)O)C(=O)O)cc(-c4cc(F)ccc4O)c3O)nc2c1 (centres undefined) | 2.6 | < 1 | 0.004 | – |
| N=C(N)c1ccc2[nH]c(-c3cc(C(CC(=O)O)C(=O)O)cc(-c4cccc([N+](=O)[O-])c4)c3O)nc2c1 (centres undefined) | 0.04 | > 24 | 0.022 | – |
| N=C(N)c1ccc2nc(-c3cc(C(CC(=O)O)CC(=O)O)cc(-c4cccc([N+](=O)[O-])c4)c3O)[nH]c2c1 | – | – | 0.036 | – |
| N=C(N)c1ccc2nc(-c3cc(C(CCC(=O)O)C(=O)O)cc(-c4cccc([N+](=O)[O-])c4)c3O)[nH]c2c1 (centres undefined) | – | 5 | 0.017 | – |
| N=C(N)c1ccc2[nH]c(-c3cc(C(CC(=O)O)CC(=O)O)cc(-c4cccc([N+](=O)[O-])c4)c3O)cc2c1 | – | 1.5 | 0.013 | – |
| N=C(N)c1ccc2[nH]c(-c3cc(CC(=O)O)cc(-c4cc(F)ccc4O)c3O)nc2c1 | 8.1 | < 1 | 0.002 | – |
